Assay results as given in patent publication US20260109727A1, “RNA CONSTRUCTS AND USES THEREOF” (BioNTech SE, priority 2022, published 2026).
Blank lines part the entries; values can stand above or below the compound they belong to.

Columns and labels:
[1] = test system: BALB/c mice; assay: Plasma EPO in mice IV injected with 3 μg TransIT-complexed EPO mRNA (ELISA); format: in vivo
Procedure: (§1) To confirm in vitro data, female BALB/c mice from Jackson Laboratory (Bar Harbor, ME, USA) at the age of eight to ten weeks were used for in vivo experiment in accordance with federal policies on animal research (Ethics approval number: G18-12-027). Mice (n=3/group) were injected intravenously (i.v.) with 3 μg TransIT-complexed (Mirus Bio) EPO mRNAs in a final volume of 200 μL Dulbecco's modified Eagle medium (DMEM). Mice used as controls were injected with TransIT-reagent diluted in DMEM but without RNA. Mice were injected with EPO mRNA complexed with TransIT-reagent and EPO levels in plasma were measured using ELISA (FIG. 8A). Hematocrit was measured from 18 μl of blood that was collected at the indicated times using centrifugation in Drummond microcaps glass capillary tubes (20 μl volume, Merck, Germany) as described (20) (FIG. 8B). After determination of the hematocrit, capillary tubes were snapped open, and the plasma was collected to measure EPO levels and analyzed for mouse Erythropoietin DuoSet ELISA kit (R&D Systems) according to the manufacturer's instructions. […] EPO RNA containing m1Ψ translated two-fold more than U-containing mRNA at each time points (FIG. 8A). Both compound I′-1 and compound I′-6 are suitable for translation of the encoded protein and each cap analog can be used for synthesizing of non-replicating functional mRNAs (FIG. 8A, 8B).
(§2) In each in vivo experiment in order to measure the translational efficiency and to determine the functionality of EPO mRNA capped with I′-1, I′-2, I′-3, I′-5, I′-6, I′-9, I′-12, I′-13, I′-16, CC114, and CC413 in vivo, female BALB/c mice from Jackson Laboratory (Bar Harbor, ME, USA) at the age of eight to ten weeks were used for in accordance with federal policies on animal research (Ethics approval number: G19-12-074). In each case, mice (n=3/group) were injected intravenously (i.v.) with 3 μg TransIT-complexed (Mirus Bio) EPO mRNAs in a final volume of 200 μL Dulbecco's modified Eagle medium (DMEM). Mice used as controls were injected with TransIT-reagent diluted in DMEM but without RNA. To measure hematocrits and EPO levels in the individual mice that were injected with EPO mRNA capped with I′-6, I′-1, CC114, and CC413 and complexed with TransIT-reagent, 18 μL of blood was collected at the indicated times (FIG. 8B) and centrifuged in Drummond microcaps glass capillary tubes (20 μl volume, Merck, Germany) as described (19). After determination of the hematocrit, capillary tubes were snapped open, and the plasma was collected to measure EPO levels and analyzed for mouse Erythropoietin DuoSet ELISA kit (R&D Systems) according to the manufacturer's instructions. […] EPO RNA containing m1Ψ modifications translated 2-3-fold, 5-fold, and 10-fold more than U-containing mRNAs at 6-24, 48 and 72 hours after injections, respectively. (FIG. 8A). […] To address translation of I′-6-capped mRNA in human primary hepatocytes, EPO level was measured from supernatants transfected using 0.1 μg/well TransIT-formulated I′-6- or CC114-capped uRNA (FIG. 13).
To this end, we generated U-containing as well as m1Ψ-modified EPO RNA capped with cap analogs which belong to either the non-ARCA (I′-13) or ARCA (I′-6) classes. Moreover, the latter ones contain 2′-OMe (I′-5) or 3′-OMe (I′-6) at the ribose of the m7G moiety. Three μg of TransIT-complexed EPO mRNA capped with nucleoside modification-containing NeoCaps I′-13, I′-5 and I′-6 cap analogs were injected into mice intravenously. After that EPO level of plasma collected from mice was measured at 6, 24 and 48 hours after administration to compare the translational activity of mRNA capped with NeoCaps with U-containing or m1Ψ-modified mRNA capped with non-modified ARCA 3′OMe I′-1.
Plasma EPO level of mice injected with 3 μg of each TransIT-complexed mRNA was determined using murine EPO-specific ELISA at 6, 24, 48 and 72 hours after intravenous administration. […]

[2] = test system: human primary hepatocytes; assay: EPO secretion in human primary hepatocytes transfected with TransIT-EPO mRNA (ELISA); format: cell-based
Procedure: To measure the translational efficiency of EPO mRNA capped with compound I′-1, compound I′-6, CC114, and CC413 in vitro, human primary hepatocytes were seeded into 96-well plates at a density of 2.5×10^4 cells per well and were transfected with mRNA samples (0.1 μg) complexed with TransIT reagent (Mirus Bio, Madison, WI, USA) in a final volume of 200 μL in InVitroGRO CP Medium (Sigma-Aldrich) supplemented with Thorpedo Antibiotic Mix (Sigma-Aldrich). To quantify EPO levels, the supernatant was collected at 1, 2, 3, 4, 5 and 6 day after transfection and EPO levels were analyzed by mouse Erythropoietin DuoSet ELISA kit (R&D Systems, Minneapolis, MN, USA) according to the manufacturer's instructions.
as §2
To test if various uridine (U) or pseudouridine (Ψ) derivatives of cap analogues can improve translation in human primary hepatocytes, we first measured EPO secretion after application of EPO-encoding Ψ-mRNA capped with compounds described herein analog bearing pseudouridine (I′-3) or CC413 (no modification). […] In addition, all tested modification bearing caps led to increase in EPO secretion at 24 h and 48 h when compared to the unmodified I′-1 (FIG. 16).

[3] = test system: human PBMCs; assay: Cytokine/chemokine secretion in human PBMCs (MSD V-PLEX); format: cell-based; conditions: for proinflammatory cytokine/chemokine responses compared to m1Ψ-modified mRNA: lipid-complexed U-containing mRNA, even at lowest dose 0.5 μg/ml
Procedure: Human buffy coats from healthy individuals were obtained from the Faculty of Medicine of Johannes Gutenberg University, Mainz and used to isolate peripheral blood mononuclear cells (PBMCs) on a Ficoll-Paque™ PLUS (Cytiva, Marlborough, MA, USA) density gradient. In preparation for mRNA transfection, cryopreserved PBMCs were thawed and seeded into 96-well plates at a density of 5×10^5 cells per well in 190 μL RPMI medium supplemented with 1% non-essential amino acids (NEAA), 1% sodium pyruvate and 10% Fetal Bovine Serum (Merck, Germany). Cells were maintained at 37° C. with 5% CO2 until transfection with 0.5, 1.5, 5.0 and 15 μg/ml lipoplex-formulated EPO mRNA (LPX-RNA), as described in Kranz, L. M., et al. (2016) Nature, 534, 396-401. The complexed RNA (10 μl per well) was added in triplicates and supernatants were collected at 24 h after transfection to perform single cell cytotoxicity assay and to measure the cytokine/chemokine profile. To determine the cell viability and the production of selected cytokines/chemokines, supernatants from human PBMCs transfected with LPX-RNA were subjected to XTT cytotoxicity test using Cell Proliferation Kit II (Sigma-Aldrich) and cytokine/chemokine profile analysis using the Meso Scale Discovery V-PLEX Custom Human Biomarkers Proinflammatory and Chemokine Panel (Meso Scale Diagnostics—MSD, Rockville, MD, USA) according to the manufacturer's instructions, respectively. In regards of cytokine/chemokine profile analysis, a sample dilution of 1:5 (supernatant:MSD diluent) was used in each experiment. The levels of IL-6 (Interleukin 6), TNF-α (Tumor necrosis factor alpha), IL-1 (Interleukin 1 beta), IFN-γ (Interferon gamma), MCP-1 (Monocyte Chemoattractant Protein-1), […] (Macrophage inflammatory protein 1 beta) and IL-10 (Interleukin 10) were quantified 24 h after the mRNA transfection. […] This low immunogenicity can be directly attributed to the nucleoside modifications incorporated into the mRNA. To illustrate this, cells treated with lipid-complexed U-containing mRNA capped with compound I′-1, CC114 and CC413 induced much higher proinflammatory cytokine/chemokine responses even at their lowest dose (0.5 μg/ml) when compared to m1Ψ-modified mRNA (FIG. 6).
To test the effect of the cap types and mRNA 5′end on immunogenicity in human peripheral blood monocyte cells (PBMCs) we compared changes in levels of cytokines and chemokines after application of Lipoplex (LPX)-formulated EPO mRNAs. First, we compared the impact of m1Ψ-mRNA capped with I′-6 containing a UAGU 5′end vs. CC413 (AGAAU 5′end) (FIG. 12). […] Second, we compared capped EPO uRNA with I′-6 or I′-1 (FIG. 14). In this case both mRNAs had the same TAGT 5′end. […] Thus, benefit of I′-6 in decreasing the immunogenicity and thus increasing safety was found when I′-6 was used.

[4] = test system: BALB/c mice; assay: Hematocrit in mice IV injected with 3 μg TransIT-complexed EPO mRNA; format: in vivo; conditions: D14 after injection
Procedure: as §1, §2

[5] = test system: human PBMCs; assay: XTT cytotoxicity test of PBMCs transfected with LPX-formulated EPO mRNA; format: cell-based; conditions: 24 h, up to 1 μg/well mRNA
Procedure: Human buffy coats from healthy individuals were obtained from the Faculty of Medicine of Johannes Gutenberg University, Mainz and used to isolate peripheral blood mononuclear cells (PBMCs) on a Ficoll-Paque™ PLUS (Cytiva, Marlborough, MA, USA) density gradient. In preparation for mRNA transfection, cryopreserved PBMCs were thawed and seeded into 96-well plates at a density of 5×10^5 cells per well in 190 μL RPMI medium supplemented with 1% non-essential amino acids (NEAA), 1% sodium pyruvate and 10% Fetal Bovine Serum (Merck, Germany). Cells were maintained at 37° C. with 5% CO2 until transfection with 0.5, 1.5, 5.0 and 15 μg/ml lipoplex-formulated EPO mRNA (LPX-RNA), as described in Kranz, L. M., et al. (2016) Nature, 534, 396-401. The complexed RNA (10 μl per well) was added in triplicates and supernatants were collected at 24 h after transfection to perform single cell cytotoxicity assay and to measure the cytokine/chemokine profile. […] The levels of IL-6 (Interleukin 6), TNF-α (Tumor necrosis factor alpha), IL-1 (Interleukin 1 beta), IFN-γ (Interferon gamma), MCP-1 (Monocyte Chemoattractant Protein-1), […] (Macrophage inflammatory protein 1 beta) and IL-10 (Interleukin 10) were quantified 24 h after the mRNA transfection. […]

Compound: COC1C(OP(=O)([O-])OC[C@H]2O[C@@H](n3ccc(=O)[nH]c3=O)C(O)C2O)[C@@H](COP(=O)(O)OP(=O)(O)OP(=O)(O)OC[C@H]2O[C@@H](n3c[n+](C)c4c(O)nc(N)nc43)C(O)C2OC)O[C@H]1n1cnc2c(N)ncnc21 (stereo partly drawn) [I′-1, m^7G(^3′-OMe)pppA(2′-OMe)pU]
- translational capacity compared with m1Ψ in cap (I′-6) and mRNA ([1]; U-containing mRNA, each time point): significantly lower
- translation of ARCA analogs compared to non-ARCA caps CC114 and I′-13 ([1]; regardless of the RNA modification): significantly better
- translation (EPO secretion) compared to CC413 ([2]; 0.1 μg/well TransIT-EPO mRNA, 24 hrs): higher translation
- translation compared to CC413 ([2]; unmodified RNA, each time point after transfection (day 1-6)): higher translation
- proinflammatory cytokine/chemokine responses compared to m1Ψ-modified mRNA [3]: much higher
- cytokines/chemokines, compared with CC413 ([3]; unmodified mRNA, 24 h): significantly higher
- decrease of hematocrit values from D14 [4]: not observed
- toxic effect on cell viability (XTT) [5]: no toxic effect

Compound: COC1C(OP(=O)(O)OC[C@H]2O[C@@H](c3c[nH]c(=O)[nH]c3=O)C(O)C2O)[C@@H](COP(=O)(O)OP(=O)([O-])OP(=O)(O)OC[C@H]2O[C@@H](n3c[n+](C)c4c(O)nc(N)nc43)C(O)C2OC)O[C@H]1n1cnc2c(N)ncnc21 (stereo partly drawn) [I′-3, m^7G(^3′-OMe)pppA(2′-OMe)pΨ]
- EPO level compared to I′-6 ([1]; m1Ψ-modified mRNA, 48 and 72 hours after injection): equal or slightly less
- level of EPO compared to CC413 ([2]; EPO-encoding Ψ-mRNA, 24 h and 48 h): higher

Compound: COC1C(OP(=O)(O)OC[C@H]2O[C@@H](c3cn(C)c(=O)[nH]c3=O)C(O)C2O)[C@@H](COP(=O)(O)OP(=O)([O-])OP(=O)(O)OC[C@H]2O[C@@H](n3c[n+](C)c4c(O)nc(N)nc43)C(O)C2O)O[C@H]1n1cnc2c(N)ncnc21 (stereo partly drawn) [I′-13, m^7GpppA(2′-OMe)pm^1Ψ]
- translation of m1Ψ-mRNA capped with I′-13 relative to U-mRNA capped with CC114 ([1]; 6 h after injection): 8 fold
- translation of m1Ψ-mRNA capped with I′-13 relative to U-mRNA capped with CC114 ([1]; 24 h after injection): 25 fold
- translation compared to mRNA capped with non-modified ARCA cap ([1]; each tested time point (6, 24, 48 h), regardless of the mRNA modification): at least two-fold better

Second part, led by results:

- proinflammatory cytokine/chemokine responses compared to m1Ψ-modified mRNA [3]: much higher
Compound: (m2^7,3′-O)Gppp(m^2′-O)ApG [CC413, reference compound]
- translational efficiency and biological activity (murine EPO, hematocrit %) of EPO mRNA ([1]; FIG. 1, CC413 vs CC113): significantly better than CC113
- decrease of hematocrit values from D14 [4]: started to decrease at D14

- proinflammatory cytokine/chemokine responses compared to m1Ψ-modified mRNA [3]: much higher
Compound: (m^7)Gppp(m^2′-O)ApU [CC114, reference compound]
- decrease of hematocrit values from D14 [4]: started to decrease at D14
